Patent US20160039897A1, “COMPOUNDS AND METHODS FOR TREATING OBESITY AND CONTROLLING WEIGHT” (THE UNIVERSITY OF NORTH CAROLINA AT CHAPEL HILL, priority 2013, published 2016)

Assays:
Type in all cases: in vivo, mouse
[1] = tested on: IGFBP-2−/− mice; test: Inguinal and visceral fat pad, liver and heart weights at sacrifice; details: after 12 weeks; for Inguinal fat / Visceral fat: pegylated peptide 50 μg IP 3 times/week, mean±SE
Procedure: (§1) Body fat and lean muscle mass was measured at weeks 0 and 12 of treatment by magnetic resonance imaging analysis (EchoMRI-100, Echo Medical Systems, Houston, Tex.), a technique that measures fat mass and lean mass in unanesthetized animals (Kelly S A, et. al., 2010). After completion of 12 weeks of treatment, the mice were sacrificed. Blood was collected by cardiac puncture and allowed to sit for 4 hours before centrifuging at 3500 rpm×15 min. The serum was aspirated and stored at −20° C. until analysis. Abdominal inguinal and visceral fat pads were carefully dissected from each animal according to defined anatomical landmarks. All subcutaneous fat between the lower part of the rib cage and the upper thigh was considered abdominal subcutaneous inguinal fat, whereas all fat found along the mesentery starting at the lesser curvature of the stomach and ending at the sigmoid colon was considered visceral fat. Fat depots were blotted dry prior to weighing. The right inguinal fat pad was dissected separately and the triglyceride content of this tissue was determined by a colorimetric analysis (Pointe Scientific, Canton, Mich.), as previously described (Dann H, Kimura S 1992). Serum adiponectin and leptin were measured by ELISA following manufacturer's instructions (Millipore, Billerica, Mass.).
(§2) Body composition and serum adipokine measurement. Body fat and lean mass were measured at weeks 0 and 12 of treatment by magnetic resonance imaging analysis (EchoMRI-100, Echo Medical Systems, Houston, Tex.), using unanesthetized animals. After 12 weeks of treatment, the mice were sacrificed and blood was collected by cardiac puncture and centrifuged at 3500 rpm×15 min. The serum was stored at −20° C. Abdominal inguinal and visceral fat pads were dissected from each animal according to defined anatomical landmarks. Subcutaneous fat between the rib cage and the upper thigh was termed subcutaneous inguinal fat, whereas all fat from the lesser curvature of the stomach to the sigmoid colon was termed visceral fat. Fat depots were blotted dry prior to weighing. The right inguinal fat pad was dissected separately and the triglyceride content of this tissue was determined by a calorimetric analysis (Pointe Scientific, Canton, Mich. Serum adiponectin and leptin were measured by ELISA following manufacturer's instructions (Millipore, Billerica, Mass.).

[2] = tested on: IGFBP-2−/− mice; test: Body weight gain and food intake, 12 weeks of peptide treatment; details: pegylated peptide 50 μg IP 3 times/week; for body weight gain (in words): HBD peptides after 8 weeks vs control peptide, control peptide over 12 weeks vs wild type
Procedure: Generation of the B6.129-Igfbp2^tmlJep, referred to as Igfbp2^−/− mice, has been described previously (DeMambro et al., 2008; Danno et al., 1992). The mice were backcrossed onto C57BL/6J background for at least 10 generations. Mating pairs were provided from Maine Medical Center Research Institute (Scarborough, Me.). Igfbp2^+/+ mice were C57BL/6J controls. All in vivo and ex vivo experimental studies were performed using male mice. The animal study protocol was reviewed and approved by the Institutional Animal Care and Use Committee of University of North Carolina at Chapel Hill. Mice were assigned to one of four treatment groups. 1) Peg HBD1 peptide: Igfbp2^−/− mice were administered 50 μg of the pegylated HBD1 peptide in 0.1 mL PBS (n=9); 2) Peg HBD2 peptide: Igfbp2^−/− mice were administered 50 μg of the pegylated HBD2 peptide in 0.1 mL PBS (n=10); 3) control peptide: Igfbp2^−/− mice were given 50 μg of the HBD1 control peptide in 0.1 mL PBS (n=18); 4) WT: Igfbp2^+/+ mice were given 0.1 mL of PBS (n=9). All injections were administered IP 3 times weekly from 10-22 weeks of age. All mice were provided with free access to 2018 Teklad global rodent diet (Harlan, Dublin, Va.), containing 18.6% protein, 6.2% fat and 3.5% crude fiber. Food consumption and the weights of the mice were determined weekly.
To investigate the effect of IGFBP-2 HBDs on weight gain and fat mass in vivo, the peptides containing HBD sequences were administered to IGFBP-2−/− mice. […] To extend the half life of the peptides and increase their resistance to proteolysis in vivo, all three peptides were pegylated. It has been shown that 50 μg of HBD1 peptide administered via intraperitoneal (IP) injection 5 times per week for 3 weeks was effective in promoting bone growth in IGFBP-2^−/− male mice (17). […] In the second phase the effects of the HBD2 and control peptides were determined. […] To exclude the possibility that differences in weight gain were caused by different food intake, food consumption was measured weekly.
Mice. […] Food consumption and the weights of the mice were determined weekly. […]

[3] = tested on: IGFBP-2−/− mice; test: Body composition (fat and lean mass) by EchoMRI at weeks 0 and 12
Procedure: as §1, §2

[4] = tested on: IGFBP-2−/− mice; test: Serum adiponectin and leptin by ELISA; details: after 12 weeks
Procedure: as §1, §2

[5] = weeks 0 to 12, pegylated peptide 50 μg IP 3 times/week
[6] = weeks 0 to 12, pegylated peptide 50 μg IP 3 times/week, mean±SE

Sequence | reduction of inguinal fat pad (percentage of body weight) compared to control peptide [1] | reduction of visceral fat (percentage of body weight) compared to control peptide [1] | Inguinal fat [1] | Visceral fat [1] | body weight gain (in words) [2] | inhibition of fat mass acquisition ([3]; 12 weeks) | lean mass change expressed as percentage of body weight (relative reduction) [3, 5] | increase of serum leptin level compared to control peptide treated mice [4] | weight gain compared to mice that received HBD1 peptide ([2]; after 10 weeks) | reduction in body fat mass gain (fat as percentage of body weight) compared to control peptide ([3]; 12 weeks, pegylated peptide 50 μg IP 3 times/week) | Fat mass increase [3, 6] | Lean mass increase [3, 6] | serum adiponectin level lower than in control peptide treated mice [4] | serum adiponectin level reduction compared to HBD1 peptide treated mice [4]
KHLSLEEPKKLRP [HBD1 peptide] | had no effect | 24±5% | had no effect | 0.34 ± 0.01 g | gained significantly less weight | 31% | 4.1±1.1% | had no effect |  |  |  |  |  | 
KHGLYNLKQCKMSLNGQR [HBD2 peptide] | 32±7% | 44±7% | 0.23 ± 0.02 g | 0.25 ± 0.02 g | gained significantly less weight |  | 2.1±0.8% | 57±9% | significantly less | 48±9% | 0.58 ± 0.12 g | 3.10 ± 0.57 g | 36±4% | 24±5%
